Values after ≈ are worked out from the molar mass of the structure shown. Active and inactive are the calls of the source. No cut-off for these calls is given here.

Data set [1] concerns BT-549. Nature of the data set: Cytotoxicity against human BT549 cells <=10 ug/ml after 2 to 7 days by neutral red assay. The data set is classed as functional, cell-based.
Data set [2] relates to Vero. Nature of the data set: Cytotoxicity against african green monkey Vero cells <=10 ug/ml after 2 to 7 days by neutral red assay. The data set is classed as cell-based. The settings on record: chlorocebus sabaeus.
The test system of data set [3] is Plasmodium falciparum. The experiment in a line: Antimalarial activity against chloroquine-resistant Plasmodium falciparum W2 at <=10 ug/ml after 48 hrs as LDH activity by Makler assay. It is filed as functional, organism-based.
The subject of data set [4] is KB. The experiment in a line: Cytotoxicity against human KB cells <=10 ug/ml after 2 to 7 days by neutral red assay. The data set is classed as functional, cell-based.
Data set [5] relates to SK-OV-3. Nature of the data set: Cytotoxicity against human SKOV3 cells <=10 ug/ml after 2 to 7 days by neutral red assay. The data set is classed as functional, cell-based.
Data set [6] concerns K562. The experiment in a line: Cytotoxicity against human K562 cells at <=10 ug/ml after 2 to 7 days by neutral red assay. The data set is classed as functional, cell-based.
The subject of data set [7] is Plasmodium falciparum. Nature of the data set: Antimalarial activity against chloroquine-sensitive Plasmodium falciparum D6 at <=10 ug/ml after 48 hrs as LDH activity by Makler assay. The data set is classed as functional, organism-based.
Data set [8] relates to Plasmodium falciparum. Nature of the data set: Antimalarial activity against chloroquine-resistant Plasmodium falciparum W2 after 48 hrs as LDH activity by Makler assay. The data set is classed as functional, organism-based. The conditions noted are these: W2, 48 h.
Data set [9] relates to K562. Nature of the data set: Cytotoxicity against human K562 cells after 2 to 7 days by neutral red assay. It is filed as functional, cell-based.
The subject of data set [10] is KB. Nature of the data set: Cytotoxicity against human KB cells after 2 to 7 days by neutral red assay. The data set is classed as functional, cell-based.
The subject of data set [11] is BT-549. The experiment in a line: Cytotoxicity against human BT549 cells after 2 to 7 days by neutral red assay. The data set is classed as functional, cell-based.
Data set [12] has as its system Vero. Nature of the data set: Cytotoxicity against african green monkey Vero cells after 2 to 7 days by neutral red assay. The data set is classed as cell-based. The settings on record: chlorocebus sabaeus.
Data set [13] relates to SK-OV-3. The experiment in a line: Cytotoxicity against human SKOV3 cells after 2 to 7 days by neutral red assay. The data set is classed as functional, cell-based.
Data set [14] has as its system Plasmodium falciparum. Nature of the data set: Antimalarial activity against chloroquine-sensitive Plasmodium falciparum D6 after 48 hrs as LDH activity by Makler assay. The conditions noted are these: D6, 48 h. It is filed as functional, organism-based.
The test system of a further data set is Giardia intestinalis. Nature of the data set: Antiparasitic activity against Giardia intestinalis ATCC 30888 at <=20 ug/ml after 24 hrs by XTT assay. The data set is classed as functional, organism-based. The settings on record: Giardia duodenalis. In general terms: Tetrazolium dyes change colour on reduction, which living cells bring about.
The next data set deals with Crithidia fasciculata. The experiment in a line: Trypanocidal activity against Crithidia fasciculata ATCC 11745 at <=20 ug/ml after 48 hrs by SRB assay. It is filed as functional, organism-based.

Regarding `C[C@@H]1C[C@H](O)C(=O)[C@]2(C)[C@H]3[C@H](O)C(=O)[C@H](C)[C@@H]4CC(=O)O[C@H](C[C@@H]12)[C@]34C` [AMAROLIDE], the result in the data set with BT-549 [1], with Plasmodium falciparum [3], in the data set with KB [4], in the data set with SK-OV-3 [5], in the data set with K562 [6] and in the data set with Plasmodium falciparum [7] was inactive. Further, in the data set with Vero [2], the Activity entry is recorded as “Not Active”.
As for `CC1=C[C@H](O)[C@@H](O)[C@]2(C)[C@H]3[C@]4(O)OC[C@]35[C@H]([C@@H](C)[C@H]4O)[C@@H](O[C@@H]3O[C@H](CO)[C@@H](O)[C@H](O)[C@H]3O)C(=O)O[C@@H]5C[C@@H]12`, the outcome in the data set on BT-549 [1], in the data set on Plasmodium falciparum [3], with KB [4], with SK-OV-3 [5], in the data set on K562 [6] and in the data set with Plasmodium falciparum [7] was inactive. For the same compound, the Activity entry with Vero [2] was “Not Active”.
Broadly, the IC50 is the concentration that inhibits the measured activity by half. Take `CC(=O)O[C@H]1C(=O)O[C@@H]2C[C@H]3C(C)=CC(=O)[C@@H](O)[C@]3(C)[C@H]3[C@]4(O)OC[C@]32[C@@H]1[C@@H](C)[C@H]4O` [HOLACANTHONE]: the half-inhibitory concentration (IC50) with Plasmodium falciparum [8] is 0.012 µg/mL (≈ 0.0275 µM); in the data set with K562 [9], 1 µg/mL (≈ 2.29 µM); in the data set on KB [10], 0.5 µg/mL (≈ 1.15 µM); in the data set with BT-549 [11], 0.3 µg/mL (≈ 0.687 µM); in the data set with Vero [12], 1 µg/mL (≈ 2.29 µM); in the data set with SK-OV-3 [13], 0.5 µg/mL (≈ 1.15 µM). This compound showed a 50% inhibitory concentration (IC50) with Plasmodium falciparum [14] of 0.01 µg/mL (≈ 0.0229 µM).
On to `CC1=C[C@H](O)[C@@H](O)[C@]2(C)[C@H]3[C@@]4(O)OC[C@@]35[C@@H](C[C@@H]12)OC(=O)C[C@H]5[C@@H](C)[C@H]4O` [CHAPARRIN], for which the outcome with BT-549 [1], in the data set on KB [4], with SK-OV-3 [5] and in the data set on K562 [6] was inactive. For the same compound, the values for the IC50 in the data set on Plasmodium falciparum [8] and in the data set with Plasmodium falciparum [14] were 0.35 µg/mL (≈ 0.92 µM) and 0.25 µg/mL (≈ 0.657 µM), respectively. Further, the Activity entry in the data set with Vero [2] was “Not Active”.
On to `CC1=CC(=O)[C@@H](O)[C@]2(C)[C@H]3[C@]4(O)OC[C@]35[C@H]([C@@H](C)[C@H]4O)[C@@H](O)C(=O)O[C@@H]5C[C@@H]12` [GLAUCARUBOLONE], for which the IC50 in the data set with Plasmodium falciparum [8] came out at 0.2 µg/mL (≈ 0.507 µM); in the data set on K562 [9], 0.6 µg/mL (≈ 1.52 µM); in the data set with KB [10] it was 1 µg/mL (≈ 2.54 µM); in the data set with BT-549 [11], 0.4 µg/mL (≈ 1.01 µM); in the data set on Vero [12], 1.5 µg/mL (≈ 3.8 µM); with SK-OV-3 [13], 0.8 µg/mL (≈ 2.03 µM). Half-maximal inhibition with Plasmodium falciparum [14] (IC50) was put at 0.125 µg/mL (≈ 0.317 µM).
For the compound `C[C@@H]1C[C@H](O)C(=O)[C@]2(C)[C@H]3[C@H](OC(=O)/C=C/c4ccc(O)cc4)C(=O)[C@H](C)[C@@H]4CC(=O)O[C@H](C[C@@H]12)[C@]34C`, the result with Giardia intestinalis, in the data set with BT-549 [1], in the data set on Crithidia fasciculata, in the data set on KB [4], with SK-OV-3 [5] and in the data set on K562 [6] was inactive. Further, the 50% inhibitory concentration (IC50) was found to be 0.75 µg/mL (≈ 1.47 µM) in the data set on Plasmodium falciparum [8] and 0.92 µg/mL (≈ 1.8 µM) in the data set on Plasmodium falciparum [14]. Further, in the data set on Vero [2], the Activity entry is “Not Active”.
Regarding `CC1=CC(=O)[C@@H](O)[C@]2(C)[C@H]3[C@@]4(O)OC[C@@]35[C@@H](C[C@@H]12)OC(=O)C[C@H]5[C@@H](C)[C@H]4O` [CHAPARRINONE], the concentration for half-maximal inhibition (IC50) with Plasmodium falciparum [8] turned out to be 0.2 µg/mL (≈ 0.529 µM); in the data set on K562 [9], 1.8 µg/mL (≈ 4.76 µM); in the data set on KB [10], 1.2 µg/mL (≈ 3.17 µM); in the data set on BT-549 [11], 0.8 µg/mL (≈ 2.11 µM); with Vero [12] it was 1.5 µg/mL (≈ 3.96 µM); in the data set with SK-OV-3 [13], 0.5 µg/mL (≈ 1.32 µM). In the data set on Plasmodium falciparum [14], this compound came in with a half-inhibitory concentration (IC50) of 0.25 µg/mL (≈ 0.661 µM).
For the compound `COc1cccc2c1C(=O)c1c(O)c3c(c(O)c1C2=O)C[C@@](O)(C(=O)CO)C[C@@H]3O[C@H]1C[C@H](N)[C@H](O)[C@H](C)O1` [DOXORUBICIN], the half-inhibitory concentration (IC50) with K562 [9] amounted to 0.035 µg/mL (≈ 0.0644 µM); in the data set with KB [10] it was 0.12 µg/mL (≈ 0.221 µM); in the data set with BT-549 [11], 0.008 µg/mL (≈ 0.0147 µM); in the data set on Vero [12], 1.5 µg/mL (≈ 2.76 µM); in the data set with SK-OV-3 [13], 0.01 µg/mL (≈ 0.0184 µM).

The values are drawn from ChEMBL document CHEMBL1151670, “A new quassinoid from Castela texana” (J Nat Prod, 1996).
